Laboratory results taken from US4997834A, “Trans-4-amino(alkyl)-1-pyridylcarbamoylcyclohexane compounds and pharmaceutical use thereof” (priority 1988, dated 1991).

What was measured:
right vertebral artery = experiment: Effect on vertebral blood flow (perfused right vertebral artery, anesthetized dogs); assay type: in vivo, adult mongrel dogs; conditions: doses 10-100 μg (A); for Effect of vertebral blood flow, ED100: dose giving 100% of the maximum blood flow increase by 100 μg papaverine hydrochloride, 30-100 μg (B, C) into vertebral artery; for Effect of vertebral blood flow, T1/2 (duration of the effects): injection into vertebral artery, 30-100 μg (B, C)
Description: PHARMACOLOGICAL EXPERIMENT 3: EFFECT ON VERTEBRAL BLOOD FLOW
Groups of two adult mongrel dogs were anesthetized with the intraveneous administration of 25 mg/kg of body weight of sodium pentobarbital.
The right vertebral artery was perfused and the blood flow volume was measured. Test compound was injected in the vertebral artery. The percentage of maximum increase of blood flow by the injection of 100 μg of papaverine hydrochloride (1-[(3,4-dimethoxyphenyl)methyl]-6,7-dimethoxyisoquinoline hydrochloride) in vertebral artery was taken as 100% . The effects of test compound on vertebral artery were expressed as ED100 (μg), a dose required to obtain 100% of the increase of blood flow. Each of half-life (T 1/2, minute) was measured as the duration of the effects.

ddY strain mice = experiment: Acute toxicity, intraperitoneal, mice; assay type: in vivo
Source text: EXPERIMENT OF ACUTE TOXICITY
Each of test compounds of A, B and C was intraperitoneally administered to ddY strain mice.

left coronary artery = experiment: Effect on coronary blood flow (perfused left coronary artery, anesthetized dogs); assay type: in vivo, adult mongrel dogs; conditions: pentobarbital-anesthetized; for Effect of coronary blood flow, ED50 (in artery): dose increasing coronary blood flow by half of the effect of 3 μg intracoronary nifedipine, test dose 10-300 μg into coronary artery; for Effect of coronary blood flow, T1/2 (duration of effects): injection into coronary artery, 10-300 μg
Description: PHARMACOLOGICAL EXPERIMENT 2: EFFECT ON CORONARY BLOOD FLOW
Groups of 2 to 3 adult mongrel dogs were anesthetized with the intraveneous administration of 30 mg/kg of body weight of sodium pentobarbital.
According to the method of Yago et. al. described in Folia Pharmacologica Japonica, vol. 57, p.380 (1961), the left coronary artery was perfused and its blood flow volume was measured. Test compound was injected into the coronary artery at a […] of 10-300 μg. The effects of test compound on coronary blood flow were expressed as ED50 (μg), a dose required to increase the coronary blood flow by a half of the effects of the coronary-artery injection of 3 μg of nifedipine [Dimethyl 2,6-dimethyl-4-(2-nitrophenyl)-1,4-dihydropyridine-3,5-dicarboxylate]. Each of half-life (T 1/2, minute) was measured as the duration of effects.

[1] = test system: spontaneously hypertensive rats; experiment: Antihypertensive effect: systolic blood pressure by tail cuff method in spontaneously hypertensive rats; assay type: in vivo, male spontaneously hypertensive rats; conditions: 30 mg/kg orally, measured three hours after administration
Description: PHARMACOLOGICAL EXPERIMENT 1: ANTIHYPERTENSIVE EFFECT
Each of 30 mg/kg of test compounds dissolving in 0.5% of hydroxypropyl-methylcellurose was orally administered to groups of 3 to 5 male spontaneously hypertensive rats weighing 350-450 g. Three hours after the administration, the systolic blood pressure was measured by tail cuff method and antihypertensive effects are examined.

[2] = intraperitoneal dose of 100 mg/kg, five days after administration

Compound: C[C@H]1C[C@H](CN)CC[C@H]1C(=O)Nc1ccncc1 (relative stereo) [Test Compound B, Trans-4-aminomethyl-cis-2-methyl-1-(4-pyridylcarbamoyl)cyclohexane]
- Effect of vertebral blood flow, ED100 (right vertebral artery): 74 µg
- Effect of vertebral blood flow, T1/2 (duration of the effects) (right vertebral artery): 4.4 min
- Survival of mice (ddY strain mice; [2]): All mice survived
- Effect of coronary blood flow, ED50 (in artery) (left coronary artery): 35 µg
- Effect of coronary blood flow, T1/2 (duration of effects) (left coronary artery): 4.0 min
- Maximum lowering value of systolic blood pressure [1]: -44 mmHg

Compound: CC(N)[C@H]1CC[C@H](C(=O)Nc2ccncc2)CC1 (relative stereo) [Test Compound C, Trans-4-(1-aminoethyl)-1-(4-pyridylcarbamoyl)cyclohexane]
- Effect of vertebral blood flow, ED100 (right vertebral artery): 58 µg
- Effect of vertebral blood flow, T1/2 (duration of the effects) (right vertebral artery): 3.0 min
- Survival of mice (ddY strain mice; mouse, in vivo, ip, 100 mg/kg): All mice survived
- Effect of coronary blood flow, ED50 (in artery) (left coronary artery): 34 µg
- Effect of coronary blood flow, T1/2 (duration of effects) (left coronary artery): 3.0 min
- Maximum lowering value of systolic blood pressure [1]: -52 mmHg

Compound: NC[C@H]1CC[C@H](C(=O)Nc2ccncc2)CC1 [Test Compound A, Trans-4-aminomethyl-1-(4-pyridylcarbamoyl)cyclohexane]
- Effect of vertebral blood flow, ED100 (right vertebral artery): 35 µg
- Effect of vertebral blood flow, T1/2 (duration of the effects) (right vertebral artery): 2.1 min
- Survival of mice (ddY strain mice; [2]): All mice survived
- Effect of coronary blood flow, ED50 (in artery) (left coronary artery): 56 µg
- Effect of coronary blood flow, T1/2 (duration of effects) (left coronary artery): 1.7 min
